Key:
Neuromedin-K receptor = target: T1, Neuromedin-K receptor (Homo sapiens, UniProt P29371); experiment: Compound was tested for its ability to displace [3H]senktide binding to human Tachykinin receptor 3 expressed in CHO cells; assay type: cell-based
T1 sequence (P29371 whole entry): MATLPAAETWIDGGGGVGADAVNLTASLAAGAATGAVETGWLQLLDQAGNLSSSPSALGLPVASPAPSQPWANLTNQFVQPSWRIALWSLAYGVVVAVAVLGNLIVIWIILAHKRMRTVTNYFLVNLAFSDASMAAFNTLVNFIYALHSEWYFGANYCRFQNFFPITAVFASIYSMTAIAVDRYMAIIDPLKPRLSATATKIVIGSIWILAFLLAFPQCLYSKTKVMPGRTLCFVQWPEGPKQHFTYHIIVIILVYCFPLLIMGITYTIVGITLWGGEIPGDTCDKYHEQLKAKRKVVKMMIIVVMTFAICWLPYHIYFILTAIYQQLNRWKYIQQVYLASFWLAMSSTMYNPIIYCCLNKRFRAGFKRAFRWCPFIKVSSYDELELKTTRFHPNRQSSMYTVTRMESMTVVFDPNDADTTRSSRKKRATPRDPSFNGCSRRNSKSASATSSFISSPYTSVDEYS

Interstitial collagenase = target: T2, Interstitial collagenase (Homo sapiens, UniProt P03956); experiment: Inhibition of human recombinant MMP-I
T2 sequence (P03956 whole entry): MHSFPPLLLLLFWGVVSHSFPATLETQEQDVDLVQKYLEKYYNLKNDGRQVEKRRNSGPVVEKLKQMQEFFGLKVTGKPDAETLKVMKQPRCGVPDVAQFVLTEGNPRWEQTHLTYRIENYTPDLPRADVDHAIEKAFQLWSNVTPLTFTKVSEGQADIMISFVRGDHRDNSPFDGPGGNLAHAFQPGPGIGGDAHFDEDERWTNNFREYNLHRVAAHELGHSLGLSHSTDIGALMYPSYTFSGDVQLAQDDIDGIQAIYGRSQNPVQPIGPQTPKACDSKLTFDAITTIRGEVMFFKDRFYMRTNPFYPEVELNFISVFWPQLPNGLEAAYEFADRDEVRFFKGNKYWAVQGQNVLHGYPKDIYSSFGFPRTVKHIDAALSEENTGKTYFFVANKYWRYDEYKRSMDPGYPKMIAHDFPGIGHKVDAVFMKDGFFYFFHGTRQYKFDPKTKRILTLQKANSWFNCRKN

IC50 (Neuromedin-K receptor) [µM]	IC50 (Interstitial collagenase) [µM]	Compound
60	–	O=C(/C=C/c1ccccc1)N1CCN(C(c2ccccc2)c2ccc(Cl)cc2)CC1 (configuration not stated)
–	55	N#Cc1ccc(C(=O)Nc2ccccc2N2CCCCC2)cc1

Source: ChEMBL document CHEMBL1128030, “Synthesis and biological evaluation of a library containing potentially 1600 amides / esters. A strategy for rapid compound generation and screening” (Bioorg Med Chem Lett, 1994)
